According to article PMC7054612, “In vitro and in vivo pharmacokinetic characterization of LMT-28 as a novel small molecular interleukin-6 inhibitor” (Asian-Australasian Journal of Animal Sciences, 2019):
≈ marks a conversion by molar mass, not a printed value. Read-outs that look alike come from different tables or passages of the source.

Experiments:
[1] = system: IL-6-induced STAT3 activation; assay: Western blot analysis for inhibitory effect on IL-6-induced signaling (p-STAT3) in HepG2 cells; type: cell-based; conditions: HepG2 cells pre-treated with LMT-28 (1, 3, 10, 30, 100 μM) for 1 h, then IL-6 10 ng/mL for 10 min; Western blotting
Description: HepG2 cells were seeded in MEM media (Welgene, Gyeongsan, Korea) with 10% (v/v) feta bovine serum, streptomycin (100 U/mL), and penicillin (100 U/mL; Life Technologies, Carlsbad, CA, USA). After seeding, cells were starved overnight, treated with LMT-28 for 1 h, and stimulated with IL-6 (10 ng/mL; R&D Systems, Minneapolis, MN, USA) for 10 min. Cells were treated with cell lysis buffer (Promega, Madison, WI, USA) for 30 min on ice. Cell lysates were separated on an 8% sodium dodecyl sulfate-polyacrylamide gel electrophoresis gel, then transferred to nitrocellulose membranes (Schleicher & Schuell, Dassel, Germany). The membranes were blocked overnight in Tris-buffered solution (50 mM Tris-HCl [pH 7.4], 150 mM NaCl, 0.1% Tween 20) containing 5% nonfat dry milk at 4°C and then incubated for 1 h with the appropriate primary Abs against p-STAT3 (MilliporeSigma, Burlington, MA, USA) or α-tubulin in Tris-buffered solution (TBST; 50 mM Tris-HCl [pH 7.4], 150 mM NaCl, 0.1% Tween 20) containing 5% nonfat dry milk at room temperature. The membranes were washed (10 min, five times) and incubated for 1 h with horseradish peroxidase-conjugated secondary Abs diluted to 1:6,000. After 10 washes, the membranes were incubated with enhanced chemiluminescence reagents (MilliporeSigma, USA) and chemiluminescent signals were visualized using X-ray film.

[2] = Lipophilicity (LogP) by GLpKa, D-PAS method; type: physicochemical
Description: (§1) The shake-flask method was applied to measure the equilibrium solubility of LMT-28 [16, 17]. Excess amount of LMT-28 was added into the water and the suspension was shaken at 25°C during 24 h in a flask for equilibrium solubility. The solution, then, was filtered and the concentration of LMT-28 in the filtered solution was quantified using ultra HPLC (ThermoFisher Scientific, Waltham, MA, USA) at wavelength 254 nm. The lipophilicity of LMT-28 was measured by using GLpKa (Pion, Cambridge, MA, USA) based on dip-probe absorption spectroscopy (D-PAS) method. The resultant values were calculated by LogP software (Pion, USA) and the computational predictions for number of hydrogen bond donors, hydrogen bond acceptors, rotatable bonds and predicted polar surface area (PSA) and LogS were made using Percepta software (ACD/Labs; Toronto, Canada).

[3] = Equilibrium solubility in water, 24 h shake-flask method; type: physicochemical; conditions: thermodynamic from solid, 25°C
Description: as §1

[4] = Metabolic stability in rat liver microsomes; type: in vitro ADME; conditions: pH 7.4
Description: (§2) Metabolic stability using rat and human liver microsomes (Corning Gentest, USA) of LMT-28 was performed according to previous reported protocol. In brief, NADPH regeneration solution (Corning Gentest, USA) was added to initiate the metabolic reaction after mixing LMT-28 (final concentrations; 1 μM) with human or rat liver microsomes (0.5 mg protein/mL) in 100 mM potassium phosphate buffer (pH 7.4). After incubation at 37°C at 0, 10, 30, and 60 min, the reaction was terminated by adding three times of ice-cold acetonitrile containing internal standard (carbamazepine 10 ng/mL). After mixing by vortex and centrifugation at 10,000 g for 5 min at 4°C, the supernatants were transferred to fresh LC vials. Samples (5 μL) were analyzed by directly injection into a liquid chromatography-tandem mass spectrometry (LC-MS/MS) system for the quantification of LMT-28.
(§3) The metabolic half-life and in vitro intrinsic clearance of LMT-28 were calculated by next equations [19].
(§4) Half-life (t1/2) (h)=-0.693/KCLint,in vitro(μL/min/mg protein)=(0.693/t1/2,microsomal)×(μL incubation/mg microsomal protein)CLint,in vivo(mL/min/kg)=(0.693/t1/2,microsomal)×(mL incubation/mg microsomal protein)×(mg microsomal protein/g liver)×(g liver/kg body weight)
(§5) where K is the elimination rate constant of LMT-28 in the microsomal metabolic reaction, half-life (t1/2) is microsomal metabolic half-life, CLint, in vitro is in vitro intrinsic clearance, and CLint, in vivo is in vivo intrinsic clearance. The liver weight relative to the body weight in the rat and human are 40 and 21 g/kg, respectively.

[5] = Metabolic stability in human liver microsomes; type: in vitro ADME; conditions: pH 7.4
Description: as §2, §3, §4, §5

[6] = MDCK cell permeability assay; type: in vitro ADME, canine; conditions: dog, MDCK cell monolayers
Description: In order to determine cell permeability of LMT-28, Madin-Darby canine kidney (MDCK) cells were cultured and seeded at a density of 6×10^4cells/cm^2 in 12-well Transwell plates. After checking cell monolayer integrity, the transepithelial electrical resistance (TEER) values (>500 ohms) were measured using an EVOM epithelial voltohmmeter (World Precision Instruments, Sarasota, FL, USA). After pre-incubation for 30 min at 37°C, LMT-28 (final concentrations of 2, 10, and 50 μM) was added to the donor wells in transport assay system. Sample aliquots (100 μL) were collected every 30 min for 120 min, and the same volume of fresh buffer added. The aliquots were stored at −20°C until quantitative analysis of LMT-28 concentrations by LC–MS/MS system. The apparent permeability coefficient (Papp, cm/s) was calculated as following equation: […]
where dQ/dt is the permeation rate across cell monolayer, A is the surface area of the monolayer (0.33 cm^2), and C0 is the initial donor concentration.

[7] = Plasma protein binding assay; type: in vitro ADME
[8] = In vivo pharmacokinetic study in male BALB/c mice; conditions: for AUC(0-t): n = 4, read-out: AUC8h; for half-life: n = 4, read-out: t1/2 (terminal elimination half-life) (converted)
Description: To evaluate in vivo pharmacokinetics in mice, LMT-28 was dissolved in phosphate-buffered saline (pH 7.4) containing 5% (w/v) carboxymethyl cellulose (MilliporeSigma, USA) and administered orally by using oral needle and intravenously in the mouse tail vein at the dose of 5 mg/kg to male BALB/c mice (22 to 25 g) after overnight fasting. Blood samples (50 μL) were collected at 0.5, 1, 2, 4, 6, and 8 h after oral administration of LMT-28. After taking the blood samples from mice, the samples were centrifuged to obtain plasma samples at 4°C and 10,000 g and obtained plasma samples were stored at −20°C. These plasma samples (25 μL) were used for the quantification of LMT-28 concentration in mice.
(§6) The concentrations of LMT-28 in plasma or microsomal reaction solution were determined by LC-MS/MS. For the sample preparation before LC-MS/MS analysis, three times (75 μL) of acetonitrile containing internal standard (carbamazepine 10 ng/mL) were added to 25 μL aliquots of the plasma samples. The samples were vortex-mixed and centrifuged at 10,000 g for 5 min at 4°C for the protein precipitation. The supernatant (90 μL) was transferred to LC vials and 5 μL was injected onto a LC-MS/MS system.
(§7) Mass spectrometric detection of LMT-28 was performed on an API 4000 Qtrap mass spectrometer (AB Sciex, Foster City, CA, USA) equipped with a positive electrospray ionization source. The chromatographic separation was performed on Hypersil Gold C18 column (50 mm×2.1 mm i.d., 3 μm particle size; ThermoFisher Scientific, USA) with a flow rate of 0.3 mL/min. The positive multiple reaction monitoring (MRM) mode were based on the most abundant product ions at m/z 312 → 165 for LMT-28, and m/z 237 → 194 for internal standard. Other parameters were the nebulizing (GS1), 50 psi; heating (GS2), 50 psi; collision energy, 23 eV for LMT-28 and 15 eV for internal standard, respectively. Analyst software version 1.4.2 (AB Sciex, USA) was used for the analysis of LMT-28 concentrations.
The plasma concentrations versus time profiles of LMT-28 in mice were analyzed by a non-compartmental model using WinNonlin software ver 5.3 (Pharsight, Mountain View, CA, USA). The pharmacokinetic parameters such as area under the plasma concentration-time curve (AUC), peak plasma concentration (Cmax) and the time to reach a peak concentration (Tmax), terminal elimination half-life (t1/2), mean residence time (MRT) after oral administration were obtained from each mouse’s plasma concentration-time plots for LMT-28. All data were expressed as the mean±standard deviation. A value of p<0.05 by student t-test or analysis of variance analysis was considered to be statistically significant.

[9] = Stability during sample handling and processing for LC-MS/MS analysis in biological fluids; conditions: plasma or microsomal reaction solution
Description: as §6, §7

[10] = mouse, plasma, intravenous (i.v) 5 mg/kg, n = 4
[11] = mouse, plasma, intravenous (i.v) 5 mg/kg
[12] = mouse, plasma, oral (p.o.) 5 mg/kg, n = 4
[13] = mouse, plasma, oral (p.o.) 5 mg/kg

logP [2]: 3.65 ± 0.22 | solubility at 24 h [3]: 390 ± 120 µg/mL (≈ 1250 µM) | half-life at 1 μM ([4]; rat liver microsomes 0.5 mg protein/mL, 1 μM, NADPH, 37°C, read-out: Liver microsomal stability half-life (t1/2, rat)): 0.255 ± 0.0233 h | microsomal CLint at 1 μM ([4]; rat liver microsomes, calculated from rat microsomal half-life, read-out: In vitro intrinsic clearance CLint, in vitro (Rat)): 91 ± 8.4 µL/min/mg | CLint scaled at 1 μM ([4]; rat liver microsomes, scaled from rat microsomal half-life, liver weight 40 g/kg, read-out: In vivo intrinsic clearance CLint, in vivo (Rat)): 164 ± 15 mL/min/kg | microsomal CLint at 1 μM ([5]; human liver microsomes, calculated from human microsomal half-life, read-out: In vitro intrinsic clearance CLint, in vitro (Human)): 64 ± 8.1 µL/min/mg | CLint scaled at 1 μM ([5]; human liver microsomes, scaled from human microsomal half-life, liver weight 21 g/kg, read-out: In vivo intrinsic clearance CLint, in vivo (Human)): 60 ± 7.7 mL/min/kg | half-life at 1 μM ([5]; human liver microsomes 0.5 mg protein/mL, 1 μM, NADPH, 37°C, read-out: Liver microsomal stability half-life (t1/2, human)): 0.365 ± 0.0467 h | Papp at 120 min, 10 μM [6]: 9.7 ± 1.8 ×10⁻⁶ cm/s | Plasma protein to which the drug is bound ([7]; at 2 μM): mostly bound to serum albumin | fraction unbound at 2 μM ([7]; plasma, read-out: Plasma protein binding (bound drug %) (converted)): 0.076 | bioavailability ([8]; male, BALB/c, mouse, plasma, oral, 5 mg/kg, oral vs intravenous, 5 mg/kg, read-out: F (bioavailability)): ~38.2% | AUC(0-inf) [8, 10]: 677 ± 264 ng·h/mL | MRT [8, 10]: 1.58 ± 0.32 h | clearance [8, 10]: 144 mL/min/kg | AUC(0-t) [8, 11]: 661 ± 253 ng·h/mL | Vd ([8]; mouse, plasma, intravenous (i.v) 5 mg/kg, n = 4, read-out: Vss): 12.9 ± 4.66 L/kg | half-life [8, 11]: 1.37 ± 0.29 h | AUC(0-inf) [8, 12]: 302 ± 209 ng·h/mL | Cmax [8, 12]: 137 ± 100 ng/mL | MRT [8, 12]: 1.9 ± 0.55 h | Tmax [8, 12]: 0.8 ± 0.67 h | AUC(0-t) [8, 13]: 292 ± 202 ng·h/mL | half-life [8, 13]: 1.13 ± 0.27 h | Share of total AUC (AUC∞) covered by AUC8h ([8]; oral 5 mg/kg): approximately 96.7%
Structure (SMILES): C=C(CCCCC)[C@@H](O)[C@H](C)C(=O)N1C(=O)OC[C@@H]1C(C)C [LMT-28]
Inhibition of IL-6-induced p-STAT3 expression [1]: inhibit the IL-6-induced p-STAT3 expression in a dose-dependent manner | Stability under sample handling and processing [9]: stable under various conditions of sample handling and processing
